For series [1], the system named is Vero cells. Description: LDH release cytotoxicity assay. Type of series: cell-based, African green monkey. Conditions: 0-10 µM AMPs in DMEM, 3 h and 24 h, LDH release relative to 1% Triton X-100 lysis, three independent experiments, Fig. 1A+B. The procedure: Vero-mCeacam cells (Vero cells), derived from African green monkey kidney cells, were maintained in DMEM (Gibco, Thermo Fisher Scientific, Waltham, MA) supplemented with 10% FCS (Bodinco B.V., Alkmaar, The Netherlands) and 200 units/mL penicillin, and […] (P/S) (Gibco, Life Technologies Limited, Paisley, UK) at 37 °C and 5% CO2.
To assess the cytotoxicity of peptides, Vero cells were treated with AMPs (0 − 10 μM in DMEM) as outlined in paragraph 2.5. After 3 and 24 h of stimulation, the fraction of lactate dehydrogenase (LDH) released into the culture supernatant was measured using the Cyto Tox 96 nonradioactive cytotoxicity kit (Promega GmbH, Walldorf, Germany) according to the manufacturer's instructions, and expressed as a percentage of the maximum LDH release from cells, lysed by 1% Triton X-100 (Sigma-Aldrich, T8787, Darmstadt, Germany).
Fig. 1 The cytotoxicity of AMPs on Vero cells. Cells were incubated with 0 – 10 µM AMPs for either 3 h or 24 h A and B) LDH release assay, indicating cell membrane permeability after 3 and 24 h, respectively. C and D) WST assay, measuring cell metabolic activity after 3 and 24 h, respectively. ‘No peptide‘ represents cells incubated with only growth medium for the indicated times, serving as a control. P.C in the LDH assay are cells that have been lysed by the lysis buffer representing 100% release of intracellular LDH. […]

The test system of series [2] is PEDV-GFP. Briefly: Co-incubation antiviral assay of the extended AMP panel and of FL LL-37. Type of series: cell-based, Porcine epidemic diarrhea virus. The settings on record: co-incubation with PEDV-GFP, 1 and 5 µM, 3 h, FC; two independent experiments in duplicate; Fig. 5. The procedure: (§1) In order to determine the effect of AMPs on the infectivity of PEDV, Vero cells (5 × 10^5 per well) were seeded in 12-well plates and cultured overnight at 37 °C, 5% CO2. In a co-incubation of virus and AMPs experiments (Fig. 2A), the mixture of AMPs (0–10 µM) and PEDV-GFP (MOI= 0.3) in a 1 mL volume of DMEM (P/S + 10% FCS) was added to the cells and incubated at 37 °C. After 2 h, the supernatant was replaced with fresh DMEM (P/S + 10% FCS) and incubated for 24 h. Subsequently, the cells were washed 2 times with flow cytometry buffer (500 mL PBS+ 10 mL FCS+ 250 µL of 10% NaN3) and were imaged with an EVOS M5000 Imaging System for semi-quantitative determination of infectivity. Eventually, cells were carefully detached by 2.5% trypsin, stained with ViaKrome 808 fixable viability dye (1:1000), and incubated for 30 min at 4 °C. Following washing, the cells were fixed using 50 µL of 4% PFA for 10 min, and a minimum of 1 × 10^5 cells were acquired using the CytoFLEX LX Flow Cytometer (FC)(Beckman Coulter, USA). Data was analyzed using FlowJo software v.10.6 (Flowjo LCC, Ashland, OR, USA).
This extended panel of AMPs encompassed chicken-derived peptides (D-CATH-2, l-CATH-2), mouse-derived peptide (CRAMP), horse-derived peptides (eCATH-1, eCATH-3), parrot-derived peptides (ER2, ER3, AG3), and synthetic peptides (CR165, CR174), all of which were readily accessible within our laboratory. As previously described, these AMPs were co-incubated with PEDV.
Fig. 5 Antiviral effects of a diverse group of AMPs on PEDV infection. Vero cells were incubated for 3 h with a combination of PEDV-GFP and AMPs, as described previously. FC was utilized to assess the inhibitory impact of AMPs.
Figure S4. The antiviral activity of FL LL-37 (fluorogenic LL-37 ) and unlabeled LL-37. Peptides were co-incubated at 1 and 5 µM with PEDV and added to Vero cells for 3 h, followed by FC analysis to examine the infectivity.

In series [3] the test system is PEDV. Description: Co-incubation antiviral assay, PEDV MOI=1, Vero cells. Conditions: Fig. 4B. Type of series: cell-based, Porcine epidemic diarrhea virus. The procedure: as §1
Fig. 4 The inhibitory effect of AMPs on PEDV at MOI=1. A) Fluorescence microscopy image was captured at 20 × magnification to visualize the GFP fluorescence signal in Vero cells following co-incubation of AMPs and PEDV at MOI=1. B) The percentage of GFP-positive cells was determined by FC after 3 h co-incubation of PEDV and AMPs. C) The fluorescence intensity of GFP across three different concentrations of LL-37 was illustrated through the FC histogram. […] The reported values in 4A represent the mean ± SD of three independent experiments performed in duplicate **** p < 0.0001.

The subject of series [4] is PEDV-GFP. Briefly: Post-incubation (post-treatment) antiviral assay. Type of series: cell-based, Porcine epidemic diarrhea virus. The settings on record: Vero cells exposed to PEDV-GFP 2 h, washed, then AMPs for 3 h; FC; Fig. 7B, C. The procedure:
In post-incubation assays (Fig. 7A), cells were initially exposed to the virus for 2 h, washed 2times with PBS and subsequently treated with AMPs for 3 h Both for pre- and post-infection assays, after the respective incubation periods, the cells were assessed using fluorescence microscopy and quantified using FC as described above.
Fig. 7 Effects of AMPs in post-incubation assay. A) Design and setup of post-incubation assay. B) The percentage of GFP-positive cells was quantified using FC during post-incubation. C) The FC histogram illustrates the fluorescence intensity of GFP after treatment with CATH-B1 and LL-37. […] The reported values represent the mean ± SD derived from three independent experiments performed in triplicate.

For the sequence “LLGDFFRKSKEKIGKEFKRIVQRIKDFLRNLVPRTES [LL-37, human cathelicidin antimicrobial peptide, 37 residues]”, the “cytotoxicity (LDH release)” value in series [1] is listed as “no toxic effects”. In addition, in series [2], the “prevention of PEDV-GFP entry into Vero cells, extended AMP panel, in words” value is “strong antiviral activity”. In series [3] (10 µM peptide, PEDV MOI=1, Vero cells, no-peptide control almost 100%), the “% infected cells (FC), co-incubation at MOI=1” value is listed as 30%. In series [3] (PEDV MOI=1, co-incubation, Vero cells, FC), the “antiviral effect at MOI=1, in words” value is “remained strong”. The “antiviral activity in post-incubation assay, in words” value in series [4] is given as “very moderate effect”.

(Values after article PMC11607671, “Antiviral activity of cathelicidins against porcine epidemic diarrhea virus (PEDV): Mechanisms, and efficacy” (Virus Research, 2024).)
